Assay results: patent US9879049B2, “Glycopeptide antibiotic analogs effective against vancomycin-resistant bacterial strains” (The Scripps Research Institute, priority 2011, dated 2018)
In brackets after ≈: the same amount, converted by molar mass. Where two headings read alike, the source gives them in different places. Each block holds one molecule with its values, some of them ahead of it.

Assays:
[1] = test system: E. faecalis (BM4166, VanA VRE); assay: MIC by broth microdilution, VanA VRE; type: cell-based; settings: for MIC: Enterococcus faecalis, read-out: VanA MIC (minimum inhibitory conc.)
Experimental: E. faecalis (BM4166) was propagated and MIC's were determined in duplicate by the broth microdilution method according to standard microbiological practice. See: Clinical and Laboratory Standards Institute. Methods for Dilution Antimicrobial Susceptibility Tests for Bacteria That Grow Aerobically; Approved Standard, 7th ed.; CLSI document M07-A8; Clinical and Laboratory Standards Institute: Wayne, Pa., 2009. Cudic, M.; Condie, B. A.; Weiner, D. J.; Lysenko, E. S.; Xiang, Z. Q.; Insug, O.; Bulet, P.; Otvos, L., Jr.; Peptides 2002, 23, 271.
(§1) S. Aureus (ATCC 25923) and E. Faecalis (BM4166) were propagated and MICs were determined in duplicate by the broth microdilution method according to standard microbiological practice. (Clinical and Laboratory Standards Institute. Methods for Dilution Antimicrobial Susceptibility Tests for Bacteria That Grow Aerobically; Approved Standard, 7th ed.; CLSI document M07-A8; Clinical and Laboratory Standards Institute: Wayne, Pa., 2009.)

N,N′-Ac2-Lys-D-Ala-D-Ala = assay: Titration binding assay (UV difference) with model D-Ala-D-Ala ligand; settings: for ligand, Ka, 6, X = NH: model ligand 6 (D-Ala-D-Ala), 0.02 M sodium citrate buffer pH 5.1; for Ka(6/7): ratio of Ka for ligand 6 (D-Ala-D-Ala) to ligand 7 (D-Ala-D-Lac)
Experimental: (§2) The binding constants for compounds 6 and 8 for association with the model ligands N,N′-Ac2-Lys-D-Ala-D-Ala (2) and N,N′-Ac2-Lys-D-Ala-D-Lac (4) were determined according to literature protocol.^30 UV difference measurements were carried out on a CARY 3E UV-Vis spectrometer. UV scans were run with a baseline correction that consisted of 0.02 M sodium citrate buffer (pH=5.1) and covered the range from 200 to 345 nm. A solution of 6 or 8 (7.7×10^−5M in 0.02 M sodium citrate buffer) was placed into a quartz UV cuvette (0.1 cm path length) and the UV spectrum recorded versus a reference cell containing 0.02 M sodium citrate buffer. UV spectra were recorded after each addition of a solution of N,N′-Ac2-Lys-D-Ala-D-Ala (2) or N,N′-Ac2-Lys-D-Ala-D-Lac (4) in 0.02 M sodium citrate buffer to each cell from 0.1 to 60.0 equivalents. The absorbance value at the λmax was recorded and the running change in absorbance, ΔAx equiv (Ainitial−Ax equiv), measured. The number of ligand equivalents was plotted versus ΔA to afford the ligand binding titration curve. The break point of this curve is the saturation point of the system and its xy coordinates were determined by establishing the intersection of the linear fits of the pre- and post-saturation curves. ΔAsaturation was calculated and employed to determine the concentration of free ligand in solution at each titration point. ΔA was plotted versus ΔA/free ligand concentration to give a Scatchard plot from which the binding constants were determined.
(§3) Titration Binding Assays with Model D-Ala-D-Ala and D-Ala-D-Lac Ligands 6 and 7.
(§4) The binding constants for all compounds for association with the model ligands N,N′-Ac2-Lys-D-Ala-D-Ala (6) and N,N′-Ac2-Lys-D-Ala-D-Lac (7) were determined according to literature protocol. UV difference experiments were carried out on a CARY 3E UV-Vis spectrometer. UV scans were run with a baseline correction that consisted of 0.02 M sodium citrate buffer (pH=5.1) and covered a range from 200 to 345 nm. A solution of the vancomycin aglycon derivative (7.7×10^−5 M in 0.02 M sodium citrate buffer) was placed into a quartz UV cuvette (0.1 cm path length) and the UV spectrum recorded versus a reference cell containing 0.02 M sodium citrate buffer. UV spectra were recorded after each addition of a solution of N,N′-Ac2-Lys-D-Ala-D-Ala (6) or N,N′-Ac2-Lys-D-Ala-D-Lac (7) in 0.02 M sodium citrate buffer to each cell from 0.1 to 60.0 equivalents. The absorbance value at the λmax was recorded and the running change in absorbance, ΔAx equiv (Ainitial−Ax equiv), measured. The number of ligand equivalents was plotted versus ΔA to afford the ligand binding titration curve. The break point of this curve is the saturation point of the system and its xy coordinates were determined by establishing the intersection of the linear fits of the pre and postsaturation curves. ΔAsaturation was calculated and employed to determine the concentration of free ligand in solution at each titration point. ΔA was plotted versus ΔA/free ligand concentration to give a Scatchard plot from which the binding constants were determined.

N,N′-Ac2-Lys-D-Ala-D-Lac = assay: Titration binding assay (UV difference) with model D-Ala-D-Lac ligand; settings: for ligand, Ka, 7, X = O: model ligand 7 (D-Ala-D-Lac), 0.02 M sodium citrate buffer pH 5.1
Experimental: Titration Binding Assays with Model D-Ala-D-Ala and D-Ala-D-Lac Ligands 2 and 4.
as §2, §3, §4

[2] = amidine group; cited from earlier work
[3] = test system: D-Ala-D-Lac, substrate model 4 (X═O); settings: cited from earlier work
[4] = test system: substrate model 3 (X═CH2); settings: substrate model 3 (X═CH2) versus model 2; cited from earlier work
[5] = test system: Vancomycin-resistant bacteria (VanA and VanB); settings: resistant bacteria with D-Ala-D-Lac precursor; cited from earlier work
[6] = test system: sensitive bacterial strains; assay: Activity against sensitive bacterial strains; type: cell-based; settings: read-out: MIC against sensitive bacterial strains
S. Aureus (ATCC 25923) = assay: MIC by broth microdilution, vancomycin-sensitive S. aureus; type: cell-based; settings: Staphylococcus aureus, ATCC25923
Experimental: as §1

Molecule: CN[C@H](CC(C)C)C(=O)N[C@H]1C(=O)N[C@@H](CC(N)=O)C(=O)N[C@H]2C(=N)NC3C(=O)N[C@H](C(=O)N[C@H](C(=O)O)c4cc(O)cc(O)c4-c4cc3ccc4O)[C@H](O)c3ccc(c(Cl)c3)Oc3cc2cc(c3O)Oc2ccc(cc2Cl)[C@H]1O [Compound 4, [Ψ[C(═NH)NH]Tpg^4]Vancomycin Aglycon]
MIC ([1]; VRE): 0.31 µg/mL (≈ 0.271 µM)
ligand, Ka, 6, X = NH (N,N′-Ac2-Lys-D-Ala-D-Ala): 73000 M⁻¹
Ka(6/7) (N,N′-Ac2-Lys-D-Ala-D-Ala): 1.05
ligand, Ka, 7, X = O (N,N′-Ac2-Lys-D-Ala-D-Lac): 69000 M⁻¹
pKa [2]: 12.5

Molecule: CN[C@H](CC(C)C)C(=O)N[C@H]1C(=O)N[C@@H](CC(N)=O)C(=O)N[C@H]2C(=O)N[C@H]3C(=O)N[C@H](C(=O)N[C@H](C(=O)O)c4cc(O)cc(O)c4-c4cc3ccc4O)[C@H](O)c3ccc(c(Cl)c3)Oc3cc2cc(c3O[C@@H]2O[C@H](CO)[C@@H](O)[C@H](O)[C@H]2O[C@H]2C[C@](C)(N)[C@H](O)[C@H](C)O2)Oc2ccc(cc2Cl)[C@H]1O [vancomycin]
loss in Gibbs free energy of binding ΔG° ([3]; 25° C., substrate model 4 (X═O) versus model 2): 3.1 kcal/mol
reduction of binding affinity for the altered ligand D-Ala-D-Lac ([3]; versus D-Ala-D-Ala): 1000 fold
free energy loss of binding [4]: about 1.5 kcal/mole
loss in antimicrobial activity [5]: 1000 fold

Molecule: CN[C@H](CC(C)C)C(=O)N[C@H]1C(=O)N[C@@H](CC(N)=O)C(=O)N[C@H]2C(=O)N[C@H]3C(=O)N[C@H](C(=O)N[C@H](C(=O)O)c4cc(O)cc(O)c4-c4cc3ccc4O)[C@H](O)c3ccc(c(Cl)c3)Oc3cc2cc(c3O)Oc2ccc(cc2Cl)[C@H]1O [Compound 2, vancomycin aglycone, reference compound]
MIC ([1]; VRE): 640 µg/mL (≈ 559 µM)
ligand, Ka, 6, X = NH (N,N′-Ac2-Lys-D-Ala-D-Ala): 170000 M⁻¹
Ka(6/7) (N,N′-Ac2-Lys-D-Ala-D-Ala): 1400
MIC [6]: 0.3 to 2 µg/mL (≈ 0.262 to 1.75 µM)
ligand, Ka, 7, X = O (N,N′-Ac2-Lys-D-Ala-D-Lac): 120 M⁻¹

Molecule: CN[C@H](CC(C)C)C(=O)N[C@H]1C(=O)N[C@@H](CC(N)=O)C(=O)N[C@H]2C(=S)NC3C(=O)N[C@H](C(=O)N[C@H](C(=O)O)c4cc(O)cc(O)c4-c4cc3ccc4O)[C@H](O)c3ccc(c(Cl)c3)Oc3cc2cc(c3O)Oc2ccc(cc2Cl)[C@H]1O [Compound 5, [Ψ[C(═S)NH]Tpg^4]Vancomycin Aglycon]
MIC ([1]; VRE): > 640 µg/mL
antimicrobial activity ([1]; result in words, FIG. 3): lacked any antimicrobial activity
ligand, Ka, 6, X = NH (N,N′-Ac2-Lys-D-Ala-D-Ala): 170 M⁻¹
binding to D-Ala-D-Ala (N,N′-Ac2-Lys-D-Ala-D-Ala; result in words, FIG. 3): completely disrupt binding
ligand, Ka, 7, X = O (N,N′-Ac2-Lys-D-Ala-D-Lac): 11 M⁻¹
binding to D-Ala-D-Lac (N,N′-Ac2-Lys-D-Ala-D-Lac; result in words, FIG. 3): completely disrupt binding

MIC ([1]; E. faecalis BM4166, VanA VRE): > 40 µg/mL
MIC (S. Aureus (ATCC 25923)): 10 µg/mL (≈ 8.67 µM)
binding of D-Ala-D-Ala versus D-Ala-D-Lac (N,N′-Ac2-Lys-D-Ala-D-Ala; D-Ala-D-Ala bound more effectively than D-Ala-D-Lac): ≥ 120 fold
affinity for D-Ala-D-Ala, fold less than parent amide 8 or amidine 10 (N,N′-Ac2-Lys-D-Ala-D-Ala; relative to 8 or 10): 20 fold
binding of D-Ala-D-Lac (N,N′-Ac2-Lys-D-Ala-D-Lac; result in words): failed to bind
Molecule: CN[C@H](CC(C)C)C(=O)N[C@H]1C(=O)N[C@@H](CC(N)=O)C(=O)N[C@H]2C(=NC#N)NC3C(=O)N[C@H](C(=O)N[C@H](CO)c4cc(O)cc(O)c4-c4cc3ccc4O)[C@H](O)c3ccc(c(Cl)c3)Oc3cc2cc(c3O)Oc2ccc(cc2Cl)[C@H]1O (single isomer, unassigned) [Compound 14]
pKa [2]: 1

Molecule: [Ψ-[CH2NH]Tpg^4]vancomycin aglycon [Compound 3, reference compound]
VanA MIC (minimum inhibitory conc.) ([1]; E. faecalis BM4166, VanA VRE): 31 µg/mL
ligand, Ka, 6, X = NH (N,N′-Ac2-Lys-D-Ala-D-Ala): 4800 M⁻¹
Ka(6/7) (N,N′-Ac2-Lys-D-Ala-D-Ala): 0.9
ligand, Ka, 7, X = O (N,N′-Ac2-Lys-D-Ala-D-Lac): 5200 M⁻¹

MIC ([1]; E. faecalis BM4166, VanA VRE): 20 µg/mL (≈ 17.5 µM)
relative affinity for ligands 6 and 7 (N,N′-Ac2-Lys-D-Ala-D-Ala; D-Ala-D-Ala versus D-Ala-D-Lac, result in words): near equal affinities
times less effective than parent amidine 10 at binding D-Ala-D-Ala ligand 6 (N,N′-Ac2-Lys-D-Ala-D-Ala; relative to 10): 30 to 50 times
times less effective than parent amidine 10 at binding D-Ala-D-Lac ligand 7 (N,N′-Ac2-Lys-D-Ala-D-Lac; relative to 10): 30 to 50 times
Molecule: CN=C1NC2C(=O)N[C@H](C(=O)N[C@H](CO)c3cc(O)cc(O)c3-c3cc2ccc3O)[C@H](O)c2ccc(c(Cl)c2)Oc2cc3cc(c2O)Oc2ccc(cc2Cl)[C@@H](O)[C@@H](NC(=O)[C@@H](CC(C)C)NC)C(=O)N[C@@H](CC(N)=O)C(=O)N[C@@H]13 [Compound 11]
fold less potent than 10 against VanA VRE ([1]; relative to parent amidine 10): 60 fold
